The text below walks through data of US8318731B2, “Pyrrolopyrimidines” (Janssen Pharmaceutica NV, priority 2007, dated 2012).

A value given as a limit tells only on which side of the number the result lay.

One assay addresses T1, PLK4 (h) (Homo sapiens, UniProt O00444).
T1 sequence (O00444 1-970): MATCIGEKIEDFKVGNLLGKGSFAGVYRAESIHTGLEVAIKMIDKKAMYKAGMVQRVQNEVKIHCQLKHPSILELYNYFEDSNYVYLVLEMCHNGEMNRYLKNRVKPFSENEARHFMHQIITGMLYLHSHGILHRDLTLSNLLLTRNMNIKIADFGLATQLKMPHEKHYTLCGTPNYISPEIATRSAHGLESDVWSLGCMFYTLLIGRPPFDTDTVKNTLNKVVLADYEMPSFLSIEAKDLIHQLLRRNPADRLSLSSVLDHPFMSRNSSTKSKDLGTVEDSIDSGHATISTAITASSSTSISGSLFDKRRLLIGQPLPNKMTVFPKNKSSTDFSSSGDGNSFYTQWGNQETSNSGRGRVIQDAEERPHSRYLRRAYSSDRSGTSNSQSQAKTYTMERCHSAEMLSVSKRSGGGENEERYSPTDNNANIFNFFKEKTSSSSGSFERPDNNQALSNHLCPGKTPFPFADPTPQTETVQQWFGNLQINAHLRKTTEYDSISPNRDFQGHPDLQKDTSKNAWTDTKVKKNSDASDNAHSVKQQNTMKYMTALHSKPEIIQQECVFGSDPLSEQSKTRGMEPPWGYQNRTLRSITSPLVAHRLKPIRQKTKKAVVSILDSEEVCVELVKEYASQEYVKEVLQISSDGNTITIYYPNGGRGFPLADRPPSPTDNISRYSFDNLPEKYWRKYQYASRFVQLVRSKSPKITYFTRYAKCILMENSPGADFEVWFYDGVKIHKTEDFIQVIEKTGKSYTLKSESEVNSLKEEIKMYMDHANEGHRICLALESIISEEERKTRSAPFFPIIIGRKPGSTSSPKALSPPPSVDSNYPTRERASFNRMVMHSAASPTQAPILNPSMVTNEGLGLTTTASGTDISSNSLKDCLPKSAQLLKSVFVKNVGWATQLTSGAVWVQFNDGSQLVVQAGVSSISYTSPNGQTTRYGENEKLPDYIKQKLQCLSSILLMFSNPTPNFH
The assay can be described thus: PLK-4 human kinase scintillation proximity assay (SPA). The format is biochemical. As to conditions: 1 μM ATP, 60 minutes at r.t., read-out: PLK4 pIC50 (converted). The procedure, abridged:
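Scintillation proximity read-out: EDTA-stopped reactions were captured on streptavidin SPA beads after PLK4 (19 μg/ml) had phosphorylated 10 μM biotin-peptide for 60 min at room temperature, using 1 μM ATP spiked with 2 nM 33P-ATP in pH 8.0 HEPES buffer.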
Background: In a scintillation proximity assay essentially only radioactivity close to the scintillant gives light.

The subject of a further assay is A2780. The assay can be described thus: Cellular proliferation assay (Alamar blue), A2780. As to conditions: Homo sapiens, A2780, A2780 cells; 10% FCS; 72 h with compound; Alamar blue 24 h; read-out: pIC50 A2780 (converted). Format: cell-based. The procedure, abridged: (§1)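 Resazurin-based Alamar blue fluorescence (544/590 nm) measured viable cell number after 72 h compound exposure, following 24 h compound-free seeding, with 10% FCS, 37° C, 5% CO2. Dye incubation lasted 24 h for PC3 and A2780, 6 h for U87-MG, 4 h for HCT-116; results relative to untreated controls.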
On the technique in general: The colour change of resazurin is a common sign of viable cells or microbes.

For a further assay, the system named is MDA-MB-231. The assay can be described thus: Cellular proliferation assay (Alamar blue), MDA-MB-231. Format: cell-based. Particulars: Homo sapiens, MDA-MB-231, MDA-MB-231 cells; 10% FCS; 72 h with compound; Alamar blue 24 h; read-out: pIC50 MDA/MB231 (converted). The procedure, abridged: (§2)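 Viable cell number is determined by Alamar blue conversion after cells are treated with compound for 72 hours, following 24 hours of growth without compound in 10% FCS. The effect is calculated against control cells.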

Another assay concerns H1299. The assay can be described thus: Cellular proliferation assay (Alamar blue), H1299. As to conditions: Homo sapiens, NCI-H1299, H1299 cells; 10% FCS; 72 h with compound; Alamar blue 4 h; read-out: pIC50 H1299 (converted). The format is cell-based. The method in brief:
as §2

Another assay concerns PC3. The assay can be described thus: Cellular proliferation assay (Alamar blue), PC3. Format: cell-based. As to conditions: Homo sapiens, PC-3, PC-3 cells; 10% FCS; 72 h with compound; Alamar blue 24 h; read-out: pIC50 PC-3 (converted). The method in brief: as §1
For another assay, the system named is HCT-116. The assay can be described thus: Cellular proliferation assay (Alamar blue), HCT-116. Format: cell-based. As to conditions: Homo sapiens; HCT-116 cells; 10% FCS; 72 h with compound; Alamar blue 4 h; read-out: pIC50 HCT-116 (converted). The method in brief:
as §1

The next assay relates to U87-MG. The assay can be described thus: Cellular proliferation assay (Alamar blue), U87-MG. Format: cell-based. As to conditions: Homo sapiens, U-87 MG; U87-MG cells; 10% FCS; 72 h with compound; Alamar blue 6 h; read-out: pIC50 U87MG (converted). The procedure, abridged:
as §1

`COc1cc2cc(c1OC)OCCCCC(=O)N1CCN(CC1)Cc1c[nH]c3ncnc(c13)N2` [Compound 111]: the IC50 on PLK4 (h), in the assay with A2780, in the assay with MDA-MB-231, in the assay on H1299, with PC3 and in the assay on HCT-116 was more than 10000 nM in each case. In addition, in the assay on U87-MG, the IC50 is more than 10000 nM.

Consider `COc1cc2cc(c1OC)OCCCC(=O)N1CCN(CC1)Cc1c[nH]c3ncnc(c13)N2` [Compound 112], for which the IC50 at PLK4 (h), in the assay on A2780, in the assay on MDA-MB-231, with H1299, with PC3 and in the assay with HCT-116 was more than 10000 nM in each case. Also, the IC50 in the assay on U87-MG was more than 10000 nM.

Turning to `O=C1CCCCOc2cc(cc(C(F)(F)F)c2)Nc2ncnc3[nH]cc(c23)CN2CCN1CC2` [Compound 113], the IC50 at PLK4 (h), in the assay with A2780, with MDA-MB-231, with H1299, in the assay on PC3 and with HCT-116 was more than 10000 nM throughout. In the assay with U87-MG, the IC50 is more than 10000 nM.

As for `CN1CCCN(C)C(=O)COc2cc(ccc2NC(=O)Nc2ccc(Cl)cc2)Nc2ncnc3[nH]cc(c23)C1` [Compound 116], the IC50 is 31.6 nM on PLK4 (h); 79.4 nM with A2780; 5010 nM in the assay with MDA-MB-231; 631 nM with H1299; 6310 nM with PC3; 200 nM with HCT-116. In addition, the IC50 in the assay with U87-MG is 3980 nM.

Consider `CN1CCCN(C)C(=O)COc2cc(ccc2OCC(=O)NC2CCCCC2)Nc2ncnc3[nH]cc(c23)C1` [Compound 118], for which the IC50 was 25.1 nM on PLK4 (h); 398 nM in the assay with A2780; 6310 nM in the assay with MDA-MB-231; 1580 nM with H1299; 6310 nM with PC3; 631 nM with HCT-116. For the same compound, the IC50 in the assay on U87-MG was 3160 nM.

In the case of `COCCOc1ccc2cc1OCC(=O)N(C)CCCN(C)Cc1c[nH]c3ncnc(c13)N2` [Compound 119], the IC50 on PLK4 (h) was 25.1 nM; in the assay on A2780 it was 316 nM; with MDA-MB-231, 2000 nM; in the assay on H1299, 1000 nM; in the assay with PC3, 2510 nM; in the assay with HCT-116, 316 nM. In addition, the IC50 in the assay with U87-MG is 1580 nM.

Take `CN1CCCN(C)C(=O)COc2cccc(c2)Nc2ncnc3[nH]cc(c23)C1` [Compound 120]: the IC50 on PLK4 (h) was 31.6 nM; in the assay with A2780 it was 501 nM; in the assay with MDA-MB-231, 1000 nM; in the assay with H1299 it was 1000 nM; in the assay with PC3 it was 1000 nM; with HCT-116, 398 nM. Moreover, the IC50 with U87-MG is 794 nM.

Consider `O=C1CCCCOc2cc(ccc2N2CCOCC2)Nc2ncnc3[nH]cc(c23)CN2CCN1CC2` [Compound 121], for which the IC50 at PLK4 (h) is 6310 nM; with A2780, more than 10000 nM; with MDA-MB-231 it was more than 10000 nM; with H1299, more than 10000 nM; in the assay with PC3, more than 10000 nM; in the assay with HCT-116, more than 10000 nM. Besides, the IC50 with U87-MG was more than 10000 nM.

Regarding `CC(C)NC(=O)Nc1ccc2cc1OCC(=O)N(C)CCCN(C)Cc1c[nH]c3ncnc(c13)N2` [Compound 122], the IC50 on PLK4 (h) is 200 nM; in the assay on A2780, 3980 nM; in the assay with MDA-MB-231, more than 10000 nM; in the assay on H1299 it was 7940 nM; with PC3 it was more than 10000 nM; in the assay on HCT-116 it was 6310 nM. The IC50 in the assay on U87-MG is more than 10000 nM.

Regarding `COc1cc2cc(c1OC)CN(C(C)C)CC(=O)N(C)CCCc1c[nH]c3ncnc(c13)N2` [Compound 123], the IC50 at PLK4 (h), with A2780, in the assay on MDA-MB-231, in the assay with H1299, in the assay on PC3 and with HCT-116 was more than 10000 nM in each case. Besides, the IC50 in the assay with U87-MG was more than 10000 nM.

As for `COCCN1CC(=O)N(C)CCCc2c[nH]c3ncnc(c23)Nc2cc(c(OC)c(OC)c2)C1` [Compound 124], the IC50 on PLK4 (h), in the assay on A2780, in the assay on MDA-MB-231, in the assay with H1299, in the assay with PC3 and with HCT-116 was more than 10000 nM in each case. Moreover, the IC50 in the assay with U87-MG is more than 10000 nM.

As to `CN1CCCN(C)C(=O)COc2cc(ccc2OCC(=O)NC2CC2)Nc2ncnc3[nH]cc(c23)C1` [Compound 125], the IC50 on PLK4 (h) is 25.1 nM; with A2780, 1260 nM; in the assay with MDA-MB-231 it was more than 10000 nM; in the assay with H1299, 6310 nM; in the assay with PC3, more than 10000 nM; in the assay on HCT-116 it was 5010 nM. In the assay on U87-MG, the IC50 is more than 10000 nM.

`CN1CCCN(C)C(=O)COc2cc(ccc2OCCN2CCOCC2)Nc2ncnc3[nH]cc(c23)C1` [Compound 126]: the IC50 was 501 nM at PLK4 (h); 2000 nM with A2780; 10000 nM in the assay with MDA-MB-231; 7940 nM in the assay on H1299; 7940 nM in the assay with PC3; 3980 nM in the assay with HCT-116. Moreover, the IC50 in the assay on U87-MG is 6310 nM.

For `CN1CCCN(C)C(=O)COc2cc(ccc2NC(=O)NCC2CC2)Nc2ncnc3[nH]cc(c23)C1` [Compound 127], the IC50 at PLK4 (h) is 50.1 nM; in the assay on A2780, 5010 nM; in the assay on MDA-MB-231, more than 10000 nM; in the assay with H1299 it was more than 10000 nM; with PC3, more than 10000 nM; in the assay on HCT-116, more than 10000 nM. In addition, the IC50 in the assay on U87-MG is more than 10000 nM.

In the case of `COCCOCCOc1ccc2cc1OCC(=O)N(C)CCCN(C)Cc1c[nH]c3ncnc(c13)N2` [Compound 128], the IC50 was 25.1 nM on PLK4 (h); 398 nM with A2780; 5010 nM with MDA-MB-231; 1000 nM in the assay with H1299; 6310 nM with PC3; 501 nM in the assay with HCT-116. In the assay with U87-MG, the IC50 is 2510 nM.

With `COc1ccc(NC(=O)COc2ccc3cc2OCC(=O)N(C)CCCN(C)Cc2c[nH]c4ncnc(c24)N3)cc1` [Compound 129], the IC50 at PLK4 (h) is 50.1 nM; with A2780 it was 63.1 nM; in the assay on MDA-MB-231, 1260 nM; in the assay on H1299, 200 nM; in the assay on PC3, 1000 nM; with HCT-116 it was 79.4 nM. Besides, in the assay with U87-MG, the IC50 was 794 nM.

Turning to `CCOCCCOc1ccc2cc1OCC(=O)N(C)CCCN(C)Cc1c[nH]c3ncnc(c13)N2` [Compound 130], the IC50 on PLK4 (h) was 39.8 nM; in the assay with A2780, 501 nM; in the assay with MDA-MB-231 it was 3160 nM; in the assay with H1299, 1580 nM; with PC3, 5010 nM; in the assay with HCT-116, 631 nM. Also, the IC50 in the assay with U87-MG is 2000 nM.

Take `CC(C)OCCOc1ccc2cc1OCC(=O)N(C)CCCN(C)Cc1c[nH]c3ncnc(c13)N2` [Compound 131]: the IC50 is 50.1 nM on PLK4 (h); 50.1 nM in the assay with A2780; 3160 nM in the assay with MDA-MB-231; 100 nM in the assay with H1299; 7940 nM in the assay on PC3; 63.1 nM in the assay with HCT-116. Also, the IC50 with U87-MG is 2000 nM.

Consider `COCCCOc1ccc2cc1OCC(=O)N(C)CCCN(C)Cc1c[nH]c3ncnc(c13)N2` [Compound 132], for which the IC50 at PLK4 (h) is 79.4 nM; in the assay on A2780, 1260 nM; with MDA-MB-231, 3980 nM; with H1299, 3980 nM; in the assay on PC3 it was 3980 nM; with HCT-116, 1580 nM. For the same compound, the IC50 in the assay with U87-MG was 2000 nM.
